27 compounds from patent US9980943B2, “Methods of treating muscular dystrophy” (BOARD OF REGENTS OF THE NEVADA SYSTEM OF HIGHER EDUCATION, …, priority 2013, dated 2018) can be followed below.

The subject of the test is α7 integrin (LacZ reporter in α7LacZ+/− myoblasts). Briefly: qHTS of the LOPAC library and MLSMR (online screen, α7LacZ+/− myoblasts). As to conditions: for activation at 0.307 µM / activation at 1.53 µM / activation at 7.66 µM / activation at 38.3 µM / Emax / EC50: Mus musculus, Myoblast; for activation at 0.307 µM: read-out: Activity at 0.307 uM [%] **; for activation at 1.53 µM: read-out: Activity at 1.530 uM [%] **; for activation at 7.66 µM: read-out: Activity at 7.660 uM [%] **; for activation at 38.3 µM: read-out: Activity at 38.30uM [%] **; for EC50: read-out: Fit LogAC50 (converted).

Where [1] appears, read: 48 h, read-out: Fit Infinite Activity [%].

Where two headings read alike, the source gives them in different places.

Regarding `O=C(NC(=S)NCCC1=CCCCC1)c1ccc(Br)o1` [Compound 205], where the note is “48 h”, the activation at 0.307 µM is -39.4%, the activation at 1.53 µM was -31.7%, the activation at 7.66 µM amounted to 12.1% and the activation at 38.3 µM is 50.2%. Moreover, the Emax under setting [1] was 57.8%. Further, the Emax (read-out: Max Response [%]) amounted to 50.2%.

Consider `CNc1nnc(SCC(=O)c2cc(C)n(C3CC3)c2C)s1` [Compound 68], for which the EC50 is 12.6 µM. Under “48 h”, the activation at 0.307 µM was -11.8%, the activation at 1.53 µM was -22%, the activation at 7.66 µM came out at 4.46% and the activation at 38.3 µM was determined as 220%. Further, under setting [1], the Emax was determined as 222%. The Emax (read-out: Max Response [%]) was found to be 220%.

As to `O=S(=O)(c1ccccc1)N1CCCC(c2nc(O)c3nnn(Cc4cccc(Cl)c4)c3n2)C1` (stereo not shown) [Compound 161], for the setting “48 h”, the activation at 0.307 µM was -37%, the activation at 1.53 µM is -17.7%, the activation at 7.66 µM turned out to be 22.4% and the activation at 38.3 µM worked out at 48.1%. For the same compound, the Emax under setting [1] worked out at 55%. Also, the Emax (read-out: Max Response [%]) is 48.1%.

Regarding `N=C(NOC(=O)COc1cc(Cl)c(Cl)cc1Cl)c1ccncc1` [Compound 125], for the setting “48 h”, the activation at 0.307 µM turned out to be 0%, the activation at 1.53 µM came out at 9.26%, the activation at 7.66 µM turned out to be 50.4% and the activation at 38.3 µM worked out at 108%. For the same compound, the Emax under setting [1] is 134%. In addition, the Emax (read-out: Max Response [%]) stood at 108%.

Consider `Cc1ccc(NC(=O)NCc2nc3ccccc3n2C)cc1` [Compound 77], for which the EC50 is 4.47 µM. Besides, under “48 h”, the activation at 0.307 µM was -33.5%, the activation at 1.53 µM is -19.7%, the activation at 7.66 µM worked out at 54.7% and the activation at 38.3 µM was determined as 85.1%. For the same compound, the Emax under setting [1] came to 87.1%. Also, the Emax (read-out: Max Response [%]) is 85.1%.

In the case of `N#Cc1ccc(Sc2nc3ccccc3[nH]2)cc1C#N` [Compound 218], the EC50 was 10 µM. In addition, under “48 h”, the activation at 0.307 µM turned out to be 14%, the activation at 1.53 µM amounted to 13.1%, the activation at 7.66 µM came to 29.8% and the activation at 38.3 µM is 71.5%. The Emax under setting [1] was 71.8%. For the setting “read-out: Max Response [%]”, the Emax came out at 71.5%.

On to `Nc1nccc(-c2ccc(-n3cnc4ccccc43)cc2)n1` [Compound 192], for which, under “48 h”, the activation at 0.307 µM is 0.89%, the activation at 1.53 µM was determined as 2.96%, the activation at 7.66 µM amounted to 15.9% and the activation at 38.3 µM came out at 76.1%. The Emax under setting [1] came to 76.5%. Moreover, the Emax (read-out: Max Response [%]) worked out at 76.1%.

For the compound `CC(=O)Nc1ccc(N(C(=O)c2cnccn2)C(C(=O)NC2CCCCC2)c2ccc(F)cc2)cc1` (stereo not shown) [Compound 44], the EC50 is 11.2 µM. In addition, where the note is “48 h”, the activation at 0.307 µM is -13.5%, the activation at 1.53 µM was -18.8%, the activation at 7.66 µM was 38.1% and the activation at 38.3 µM worked out at 308%. Further, under setting [1], the Emax turned out to be 311%.

For `CCNC(=O)CSc1nc(-c2ccc(F)cc2)cs1` [Compound 61], the EC50 was 5.01 µM. Moreover, where the note is “48 h”, the activation at 0.307 µM was -0.123%, the activation at 1.53 µM stood at 25.8%, the activation at 7.66 µM was found to be 82.4% and the activation at 38.3 µM turned out to be 126%. In addition, the Emax under setting [1] was found to be 136%. The Emax (read-out: Max Response [%]) came out at 126%.

Take `COc1ccc(N2CCN(CCC3Oc4cc([N+](=O)[O-])ccc4NC3=O)CC2)cc1` (stereo not shown) [Compound 194]: the Score came out at 42 and the EC50 is 8.91 µM. Also, under “48 h”, the activation at 0.307 µM was -2.43%, the activation at 1.53 µM came out at 0%, the activation at 7.66 µM is 30.6% and the activation at 38.3 µM came to 68%. The Emax under setting [1] was found to be 73.9%. Moreover, the Emax (read-out: Max Response [%]) stood at 68%.

`CNP(=O)(Oc1ccccc1)OC12CC3CC(CC(C3)C1)C2` (stereo not shown) [Compound 182]: the EC50 is 10 µM. Besides, for the setting “48 h”, the activation at 0.307 µM was found to be 0%, the activation at 1.53 µM is 0%, the activation at 7.66 µM amounted to 34.7% and the activation at 38.3 µM was found to be 93.6%. For the same compound, under setting [1], the Emax was 98.2%. Also, the Emax (read-out: Max Response [%]) amounted to 93.6%.

In the case of `COc1cc(CNCc2ccc(C(=O)O)cc2)ccc1OCc1ccc(F)cc1` [Compound 57], the EC50 was 4.47 µM. Further, for the setting “48 h”, the activation at 0.307 µM is 1%, the activation at 1.53 µM was 14.6%, the activation at 7.66 µM was found to be 82.2% and the activation at 38.3 µM is 113%. Besides, the Emax under setting [1] turned out to be 115%. For the same compound, where the note is “read-out: Max Response [%]”, the Emax worked out at 113%.

For the compound `COc1ccc(N(CC(=O)NCCC(C)C)C(=O)c2snc(C(=O)NC3CCCCC3)c2N)c(OC)c1` [Compound 98], the EC50 was 10 µM. For the same compound, where the note is “48 h”, the activation at 0.307 µM was -0.0399%, the activation at 1.53 µM was found to be 0.105%, the activation at 7.66 µM was 28.9% and the activation at 38.3 µM was found to be 125%. Moreover, the Emax under setting [1] came to 126%. Moreover, for the setting “read-out: Max Response [%]”, the Emax stood at 125%.

Take `O=C(Nc1ccc(Oc2cccnc2)cc1)c1ccccc1Cl` [Compound 215]: the EC50 was 10 µM. For the same compound, for the setting “48 h”, the activation at 0.307 µM amounted to 14.2%, the activation at 1.53 µM is 15.2%, the activation at 7.66 µM was 40.8% and the activation at 38.3 µM turned out to be 83.3%. In addition, under setting [1], the Emax was 87.4%. Further, the Emax (read-out: Max Response [%]) came out at 83.3%.

In the case of `C=CCc1c(C)nc(-c2ccccc2)nc1N/N=C/c1ccccc1` [Compound 213], under “48 h”, the activation at 0.307 µM amounted to 0%, the activation at 1.53 µM was 6.49%, the activation at 7.66 µM was determined as 41.1% and the activation at 38.3 µM came out at 90.1%. In addition, the Emax under setting [1] amounted to 109%. The Emax (read-out: Max Response [%]) stood at 90.1%.

`NS(=O)(=O)c1ccc(NC(=O)Nc2ccc(Cl)cc2)cc1` [Compound 202]: the Score amounted to 42.

Consider `CC(=O)Nc1nonc1-c1nc2ccccc2n1CCC(C)C` [Compound 219], for which, under “48 h”, the activation at 0.307 µM is -8.22%, the activation at 1.53 µM was -3.05%, the activation at 7.66 µM amounted to 21.4% and the activation at 38.3 µM came out at 66%. Under setting [1], the Emax turned out to be 76.4%. The Emax (read-out: Max Response [%]) was determined as 66%.

As for `Cc1ccc(NC(=O)C2CCCCC2C(=O)O)cc1C` (stereo not shown) [Compound 114], the EC50 is 11.2 µM. Further, under “48 h”, the activation at 0.307 µM is -6.72%, the activation at 1.53 µM is -1.25%, the activation at 7.66 µM was determined as 17.2% and the activation at 38.3 µM stood at 135%. Moreover, under setting [1], the Emax amounted to 135%. Also, the Emax (read-out: Max Response [%]) turned out to be 135%.

With `COc1ccc(C(=O)ONC(=N)c2cccc(C)c2)cc1OC` [Compound 78], the EC50 is 10 µM. Besides, where the note is “48 h”, the activation at 0.307 µM came to 10.1%, the activation at 1.53 µM was 15.5%, the activation at 7.66 µM came to 69.8% and the activation at 38.3 µM amounted to 148%. Besides, the Emax under setting [1] was 163%. In addition, the Emax (read-out: Max Response [%]) is 148%.

As to `CCS(=O)(=O)N1CCCC(C(=O)c2ccc(OC)cc2C)C1` (stereo not shown) [Compound 83], the EC50 is 11.2 µM. Under “48 h”, the activation at 0.307 µM is -13.5%, the activation at 1.53 µM was -10.6%, the activation at 7.66 µM came to 41.5% and the activation at 38.3 µM was 149%. The Emax under setting [1] was 162%. For the same compound, under “read-out: Max Response [%]”, the Emax came out at 149%.

`COC(=O)C(=O)C/C(=N/Nc1ncnc2ccccc12)c1ccc(Cl)cc1` [Compound 18]: the EC50 was 10 µM. For the same compound, for the setting “48 h”, the activation at 0.307 µM is 7.75%, the activation at 1.53 µM was found to be 30.6% and the activation at 7.66 µM was 358%.

Consider `COc1ccc(CCNC(=O)Cn2nnc(C(=O)Nc3ccc(Br)cc3)c2N)cc1OC` [Compound 148], for which, for the setting “48 h”, the activation at 0.307 µM was -30%, the activation at 1.53 µM is -26.8%, the activation at 7.66 µM is 12.5% and the activation at 38.3 µM stood at 102%. Moreover, under setting [1], the Emax amounted to 110%. Also, the Emax (read-out: Max Response [%]) is 102%.

In the case of `CC1CCN(S(=O)(=O)c2ccc(S(=O)(=O)N3CCCC3)cc2)CC1` [Compound 72], the EC50 was 8.91 µM. Besides, for the setting “48 h”, the activation at 0.307 µM amounted to 0.91%, the activation at 1.53 µM is -2.48%, the activation at 7.66 µM was determined as 54.5% and the activation at 38.3 µM was 132%. Moreover, the Emax under setting [1] was 136%. Besides, the Emax (read-out: Max Response [%]) was 132%.

Consider `O=C(NCCc1ccccc1)C1CCC(=O)N1C1CCCC1` (stereo not shown) [Compound 104], for which the EC50 was 10 µM. Where the note is “48 h”, the activation at 0.307 µM is -6.49%, the activation at 1.53 µM is -11.7%, the activation at 7.66 µM amounted to 27.3% and the activation at 38.3 µM came to 127%. Under setting [1], the Emax worked out at 128%. Under “read-out: Max Response [%]”, the Emax amounted to 127%.

In the case of `COc1ccc(C(=O)CN2CCCCC2)cc1` [Compound 181], where the note is “48 h”, the activation at 0.307 µM is 12.4%, the activation at 1.53 µM was found to be 12.9%, the activation at 7.66 µM is 18.9% and the activation at 38.3 µM was found to be 92.8%. Besides, under setting [1], the Emax stood at 93%. The Emax (read-out: Max Response [%]) stood at 92.8%.

For the compound `Cc1nn(C(C)(C)C)c(C)c1/C=N/OC(=O)Nc1ccc(Cl)c(Cl)c1` [Compound 32], the “Curve Description” value was “Complete” and the EC50 is 2.82 µM. For the setting “48 h”, the activation at 0.307 µM is -28.1%, the activation at 1.53 µM was -9.46%, the activation at 7.66 µM was determined as 51% and the activation at 38.3 µM came to 59.8%. The Emax under setting [1] was found to be 60.2%.

For `CNc1cc([N+](=O)[O-])ccc1OCc1ccccc1` [Compound 79], the EC50 is 4.47 µM. Under “48 h”, the activation at 0.307 µM was determined as 1.52%, the activation at 1.53 µM was 16.2%, the activation at 7.66 µM was 57.3% and the activation at 38.3 µM worked out at 80.2%. Besides, the Emax under setting [1] amounted to 84.8%. The Emax (read-out: Max Response [%]) turned out to be 80.2%.
